assay: Transdermal delivery of melatonin: plasma level of melatonin after applying composition to skin of a subject; conditions: 0.3 mL of 7% helper ester + 1% melatonin in water on skin of the back (20 cm×20 cm); control 2.0 ml of […] melatonin suspension in water; plasma level at 1, 2, 4, 8 hours

Row | SMILES | transdermal delivery of melatonin compared to control composition (A)
1 | CC(C)OC(=O)[C@@H](N)Cc1ccc(O)cc1 [Tyrosine isopropyl ester] | more efficient and effective transdermal delivery of melatonin
2 | CCCCCOC(=O)[C@@H](N)Cc1ccc(O)cc1 [Tyrosine pentyl ester] | more efficient and effective transdermal delivery of melatonin
3 | CCCOC(=O)[C@@H](N)Cc1ccc(O)cc1 [Tyrosine propyl ester] | more efficient and effective transdermal delivery of melatonin

Reference: patent US9962369B2, “Methods and compositions for transdermal delivery” (SPRAYABLE HOLDINGS, INC., priority 2014, dated 2018)
